Experimental findings from ChEMBL document CHEMBL3217712, “Improved biodistribution, pharmacokinetics and photodynamic efficacy using a new photostable sulfonamide bacteriochlorin” (Medchemcomm, 2012) are described below.

Each structure is given as a SMILES string.

The nature of series [1]: n-Octanol-water partition coefficient, log P of the compound. The format is physicochemical.
In a further series the test system is S91. The series can be described thus: Photodynamic efficacy against mouse Cloudman S91 cells allografted in DBA mouse assessed as time of tumor growth delay at 2 mg/kg, iv followed by irradiated with 70 mW cm'-2 diode laser light for 25 mins. The format is functional.

`O=S(=O)(O)c1ccc(Cl)c(-c2c3nc(c(-c4cc(S(=O)(=O)O)ccc4Cl)c4ccc([nH]4)c(-c4cc(S(=O)(=O)O)ccc4Cl)c4nc(c(-c5cc(S(=O)(=O)O)ccc5Cl)c5ccc2[nH]5)CC4)CC3)c1` came in with a logP in series [1] of -1.7. Besides, in the series on S91, the Time worked out at 27 days.

Consider `O=S(=O)(O)c1ccc(Cl)c(-c2c3nc(c(-c4cc(S(=O)(=O)O)ccc4Cl)c4ccc([nH]4)c(-c4cc(S(=O)(=O)O)ccc4Cl)c4nc(c(-c5cc(S(=O)(=O)O)ccc5Cl)c5ccc2[nH]5)CC4)C=C3)c1`, for which the Time in the series on S91 was 29 days.
